One experiment addresses P70S6K (T412E mutant) (Homo sapiens (Human), UniProt P23443, T412E). Put plainly: P70S6K enzyme assay. Type of experiment: biochemical. As to conditions: read-out: IC50 p70S6K. In outline: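 Read-out is the substrate/phosphopeptide ratio from mobility-shift electrophoresis on a LabChip 3000.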
The target of a further experiment is His-AKT (Full Length) (Homo sapiens (Human), UniProt P31749). In words: AKT enzyme assay. Type of experiment: biochemical. As to conditions: read-out: IC50 AKT.
Chain of His-AKT (Full Length) (P31749 whole entry): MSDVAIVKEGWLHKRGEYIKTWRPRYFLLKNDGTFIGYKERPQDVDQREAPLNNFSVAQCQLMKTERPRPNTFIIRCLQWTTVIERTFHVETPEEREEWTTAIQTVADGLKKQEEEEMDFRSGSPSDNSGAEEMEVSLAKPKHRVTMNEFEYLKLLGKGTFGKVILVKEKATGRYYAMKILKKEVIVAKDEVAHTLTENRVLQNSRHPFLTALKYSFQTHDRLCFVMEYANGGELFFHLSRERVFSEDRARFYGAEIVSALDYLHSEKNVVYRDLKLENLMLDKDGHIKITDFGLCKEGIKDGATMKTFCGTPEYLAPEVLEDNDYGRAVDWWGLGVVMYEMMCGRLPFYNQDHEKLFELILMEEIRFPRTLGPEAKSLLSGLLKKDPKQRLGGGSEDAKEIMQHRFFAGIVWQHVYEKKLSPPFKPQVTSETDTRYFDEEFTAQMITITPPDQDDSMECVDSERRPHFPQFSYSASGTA

One may read the IC50 as the concentration needed to halve the response being measured.

Molecules are shown by their SMILES.

Chain of P70S6K (T412E mutant) (P23443 whole entry T412E): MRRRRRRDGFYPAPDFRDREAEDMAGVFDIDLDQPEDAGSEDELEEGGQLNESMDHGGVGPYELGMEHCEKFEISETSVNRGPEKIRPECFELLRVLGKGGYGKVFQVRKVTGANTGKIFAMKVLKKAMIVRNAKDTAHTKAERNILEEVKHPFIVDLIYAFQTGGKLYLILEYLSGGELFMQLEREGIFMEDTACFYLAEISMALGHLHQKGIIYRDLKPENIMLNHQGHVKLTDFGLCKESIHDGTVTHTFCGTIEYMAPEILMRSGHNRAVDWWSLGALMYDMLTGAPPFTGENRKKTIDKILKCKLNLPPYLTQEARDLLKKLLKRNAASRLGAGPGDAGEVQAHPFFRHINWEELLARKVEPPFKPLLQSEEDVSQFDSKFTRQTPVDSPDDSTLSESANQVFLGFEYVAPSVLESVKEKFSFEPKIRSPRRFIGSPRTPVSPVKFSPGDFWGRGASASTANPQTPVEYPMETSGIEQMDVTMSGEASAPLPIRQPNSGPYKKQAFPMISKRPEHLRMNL

For `CCOc1c(N)ncnc1N1CCC(c2nc(-c3ccc(F)c(C)c3)cn2CCN2CCCC2)CC1` [Compound 298], the IC50 amounted to 6.8 nM on P70S6K (T412E mutant) and 6.6 nM at His-AKT (Full Length).

As to `Cc1cc(-c2cn(CCN3CCCC3)c(C3CCN(c4ncnc(N)c4OC(C)C)CC3)n2)ccc1F` [Compound 299], the IC50 was 10 nM at P70S6K (T412E mutant) and 8.9 nM at His-AKT (Full Length).

Turning to `CCc1c(N)ncnc1N1CCC(c2nc(-c3ccc(F)c(C)c3)cn2CCN(CC)C(C)C)CC1` [Compound 300], the IC50 at P70S6K (T412E mutant) came to 3.1 nM; on His-AKT (Full Length), 8.9 nM.

Consider `CCN(CCn1cc(-c2ccc(F)c(C)c2)nc1C1CCN(c2ncnc(N)c2OC(C)C)CC1)C(C)C` [Compound 302], for which the IC50 on P70S6K (T412E mutant) was determined as 12 nM; at His-AKT (Full Length), 6.3 nM.

In the case of `CCOc1c(N)ncnc1N1CCC(c2nc(-c3ccc(F)c(C)c3)cn2CCN(CC)CC)CC1` [Compound 303], the figures for the IC50 on P70S6K (T412E mutant) and at His-AKT (Full Length) were 2.4 nM and 0.8 nM, respectively.

Turning to `CCN(CC)CCn1cc(-c2ccc(F)c(C)c2)nc1C1CCN(c2ncnc(N)c2OC(C)C)CC1` [Compound 304], the figures for the IC50 at P70S6K (T412E mutant) and on His-AKT (Full Length) were 4.6 nM and 2.6 nM, respectively.

For the compound `N#Cc1c(N)ncnc1N1CCC(c2nc(-c3ccc(F)c(C(F)(F)F)c3)cn2CCN2CCCC2)CC1` [Compound 305], the results for the IC50 on P70S6K (T412E mutant) and at His-AKT (Full Length) were 1.9 nM and 3.2 nM, respectively.

`N#Cc1c(N)ncnc1N1CCC(c2nc(-c3ccc(F)c(F)c3)cn2CCN2CCCC2)CC1` [Compound 306, 4-amino-6{4-(3,4-difluorophenyl-1-2-(pyrrolidin-1-yl-ethyl)-1H-imidazol-2-yl]-piperidin-1-yl}-pyrimidin-5-carbonitrile]: the results for the IC50 at P70S6K (T412E mutant) and at His-AKT (Full Length) were 2 nM and 7.6 nM, respectively.

Turning to `N#Cc1c(N)ncnc1N1CCC(c2nc(-c3ccc(F)c(Cl)c3)cn2CCN2CCCC2)CC1` [Compound 307], the figures for the IC50 on P70S6K (T412E mutant) and at His-AKT (Full Length) were 0.8 nM and 1.5 nM, respectively.

Consider `N#Cc1c(N)ncnc1N1CCC(c2nc(-c3ccc(F)cc3)cn2CCN2CCCC2)CC1` [Compound 308], for which the IC50 was 2.6 nM at P70S6K (T412E mutant) and 13 nM on His-AKT (Full Length).

With `N#Cc1c(N)ncnc1N1CCC(c2nc(-c3cccc(F)c3)cn2CCN2CCCC2)CC1` [Compound 309], the values for the IC50 on P70S6K (T412E mutant) and at His-AKT (Full Length) were 2.6 nM and 21 nM, respectively.

Turning to `N#Cc1c(N)ncnc1N1CCC(c2nc(-c3cccc(C(F)(F)F)c3)cn2CCN2CCCC2)CC1` [Compound 310], the values for the IC50 at P70S6K (T412E mutant) and at His-AKT (Full Length) were 2.3 nM and 7.6 nM, respectively.

As to `N#Cc1c(N)ncnc1N1CCC(c2nc(-c3cccc(Cl)c3)cn2CCN2CCCC2)CC1` [Compound 311], the IC50 at P70S6K (T412E mutant) was found to be 2.3 nM; on His-AKT (Full Length), 8.4 nM.

Turning to `N#Cc1c(N)ncnc1N1CCC(c2nc(-c3ccc(F)c(C(F)(F)F)c3)cn2CCN2CCCCC2)CC1` [Compound 312], the IC50 at P70S6K (T412E mutant) was 1.9 nM; at His-AKT (Full Length), 2.3 nM.

Consider `N#Cc1c(N)ncnc1N1CCC(c2nc(-c3ccc(F)c(F)c3)cn2CCN2CCC2)CC1` [Compound 313], for which the IC50 is 1.6 nM on P70S6K (T412E mutant) and 9.3 nM on His-AKT (Full Length).

On to `N#Cc1c(N)ncnc1N1CCC(c2nc(-c3ccc(OC(F)F)c(F)c3)cn2CCN2CCC2)CC1` [Compound 314], for which the IC50 at P70S6K (T412E mutant) was determined as 1.8 nM; on His-AKT (Full Length) it was 4.1 nM.

Turning to `N#Cc1c(N)ncnc1N1CCC(c2nc(-c3cc[nH]c(=O)c3)cn2CCN2CCC2)CC1` [Compound 315], the IC50 on P70S6K (T412E mutant) stood at 99 nM; on His-AKT (Full Length), 500 nM.

As to `Cc1ccc(-c2cn(CCN3CCC3)c(C3CCN(c4ncnc(N)c4C#N)CC3)n2)cc1C(F)(F)F` [Compound 316], the IC50 on P70S6K (T412E mutant) was determined as 0.8 nM; at His-AKT (Full Length) it was 24 nM.

`CC(C)c1cc(-c2cn(CCN3CCC3)c(C3CCN(c4ncnc(N)c4C#N)CC3)n2)ccn1` [Compound 317]: the IC50 at P70S6K (T412E mutant) is 1.7 nM; on His-AKT (Full Length) it was 11 nM.

For the compound `CCc1cc(-c2cn(CCN3CCC3)c(C3CCN(c4ncnc(N)c4C#N)CC3)n2)ccn1` [Compound 318], the IC50 is 1.4 nM on P70S6K (T412E mutant) and 15 nM at His-AKT (Full Length).

Regarding `N#Cc1c(N)ncnc1N1CCC(c2nc(-c3ccnc(C4CC4)c3)cn2CCN2CCC2)CC1` [Compound 319], the IC50 on P70S6K (T412E mutant) came to 1.7 nM; on His-AKT (Full Length), 23 nM.

Values taken from patent US9145392B2, “Imidazole amines as modulators of kinase activity” (Merck Patent GmbH, priority 2011, dated 2015).
